In ChEMBL document CHEMBL4507257, “Data for DCP probe ABT-100” (2021):

Experiments:
[1] = molecular target: Activin receptor type-1-like (Homo sapiens) (UniProt P37023); conditions: Compound concentration 1000.0 nM
[2] = molecular target: Cyclin-dependent kinase-like 3 (Homo sapiens) (UniProt Q8IVW4); conditions: Compound concentration 1000.0 nM
[3] = molecular target: Serine/threonine-protein kinase 17A (Homo sapiens) (UniProt Q9UEE5); conditions: Compound concentration 1000.0 nM
[4] = system: eIF-2-alpha kinase GCN2 (Homo sapiens), Q9P2K8 [S808G]; conditions: Compound concentration 1000.0 nM
eIF-2-alpha kinase GCN2 (Homo sapiens), Q9P2K8 [S808G], sequence (Q9P2K8 whole entry S808G): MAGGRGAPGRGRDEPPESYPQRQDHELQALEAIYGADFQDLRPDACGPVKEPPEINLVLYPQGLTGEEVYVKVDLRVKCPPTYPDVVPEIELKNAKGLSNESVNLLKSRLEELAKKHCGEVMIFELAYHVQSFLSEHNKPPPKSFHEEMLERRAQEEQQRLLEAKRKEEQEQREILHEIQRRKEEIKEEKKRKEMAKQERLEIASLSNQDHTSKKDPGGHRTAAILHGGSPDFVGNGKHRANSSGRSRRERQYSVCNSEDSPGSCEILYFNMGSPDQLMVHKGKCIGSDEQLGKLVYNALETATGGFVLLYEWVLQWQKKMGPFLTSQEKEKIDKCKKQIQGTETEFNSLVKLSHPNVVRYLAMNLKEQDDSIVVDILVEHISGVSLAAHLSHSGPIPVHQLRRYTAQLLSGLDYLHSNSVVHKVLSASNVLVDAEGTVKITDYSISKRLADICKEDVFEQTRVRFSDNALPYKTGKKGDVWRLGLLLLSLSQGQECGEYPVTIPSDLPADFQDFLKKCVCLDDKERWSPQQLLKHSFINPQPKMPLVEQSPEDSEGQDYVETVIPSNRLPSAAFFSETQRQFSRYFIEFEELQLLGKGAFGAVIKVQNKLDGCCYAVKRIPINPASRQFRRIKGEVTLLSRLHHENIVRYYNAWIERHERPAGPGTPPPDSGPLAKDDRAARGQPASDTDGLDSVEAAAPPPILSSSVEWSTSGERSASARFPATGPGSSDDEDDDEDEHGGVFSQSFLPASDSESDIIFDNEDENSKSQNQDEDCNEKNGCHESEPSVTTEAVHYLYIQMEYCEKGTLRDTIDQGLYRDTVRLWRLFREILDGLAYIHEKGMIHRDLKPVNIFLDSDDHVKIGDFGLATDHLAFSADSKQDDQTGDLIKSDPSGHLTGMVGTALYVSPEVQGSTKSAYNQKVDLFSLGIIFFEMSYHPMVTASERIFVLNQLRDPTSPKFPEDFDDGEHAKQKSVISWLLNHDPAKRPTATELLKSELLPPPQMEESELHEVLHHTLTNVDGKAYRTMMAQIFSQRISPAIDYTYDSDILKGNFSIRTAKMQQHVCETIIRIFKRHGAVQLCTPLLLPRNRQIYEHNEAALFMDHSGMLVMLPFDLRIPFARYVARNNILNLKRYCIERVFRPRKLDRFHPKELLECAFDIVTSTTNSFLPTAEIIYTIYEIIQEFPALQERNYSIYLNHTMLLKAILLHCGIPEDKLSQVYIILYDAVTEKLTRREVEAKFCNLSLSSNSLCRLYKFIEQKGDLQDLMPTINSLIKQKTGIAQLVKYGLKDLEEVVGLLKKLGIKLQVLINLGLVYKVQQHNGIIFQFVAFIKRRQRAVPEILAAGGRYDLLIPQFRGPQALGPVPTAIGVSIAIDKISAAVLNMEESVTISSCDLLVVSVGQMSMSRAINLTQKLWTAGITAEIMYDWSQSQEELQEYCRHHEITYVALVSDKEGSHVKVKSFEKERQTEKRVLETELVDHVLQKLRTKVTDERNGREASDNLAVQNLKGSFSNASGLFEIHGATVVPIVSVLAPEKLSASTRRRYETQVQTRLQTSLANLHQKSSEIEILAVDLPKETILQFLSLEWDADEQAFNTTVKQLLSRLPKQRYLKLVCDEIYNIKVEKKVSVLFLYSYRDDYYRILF

[5] = molecular target: Interleukin-1 receptor-associated kinase 3 (Homo sapiens) (UniProt Q9Y616); conditions: Compound concentration 1000.0 nM
Interleukin-1 receptor-associated kinase 3 (Homo sapiens), sequence (Q9Y616 whole entry): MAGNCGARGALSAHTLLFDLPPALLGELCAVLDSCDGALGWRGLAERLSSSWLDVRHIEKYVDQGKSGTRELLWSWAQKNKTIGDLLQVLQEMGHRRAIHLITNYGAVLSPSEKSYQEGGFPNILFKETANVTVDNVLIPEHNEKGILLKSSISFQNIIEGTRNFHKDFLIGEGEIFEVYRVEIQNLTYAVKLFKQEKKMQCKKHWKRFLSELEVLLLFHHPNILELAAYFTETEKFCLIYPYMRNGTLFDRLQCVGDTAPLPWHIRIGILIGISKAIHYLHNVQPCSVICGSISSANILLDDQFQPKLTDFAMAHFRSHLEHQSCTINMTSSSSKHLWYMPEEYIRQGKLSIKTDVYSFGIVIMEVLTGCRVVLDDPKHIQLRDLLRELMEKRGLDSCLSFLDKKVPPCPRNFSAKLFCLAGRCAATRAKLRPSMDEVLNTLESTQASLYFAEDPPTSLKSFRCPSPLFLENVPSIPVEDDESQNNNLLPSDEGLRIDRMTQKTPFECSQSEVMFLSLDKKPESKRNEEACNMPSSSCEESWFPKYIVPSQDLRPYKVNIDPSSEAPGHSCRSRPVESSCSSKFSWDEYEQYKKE

[6] = molecular target: Microtubule-associated serine/threonine-protein kinase 1 (Homo sapiens) (UniProt Q9Y2H9); conditions: Compound concentration 1000.0 nM
[7] = molecular target: Dual specificity mitogen-activated protein kinase kinase 7 (Homo sapiens) (UniProt O14733); conditions: Compound concentration 1000.0 nM
[8] = molecular target: T1, Serine/threonine-protein kinase Nek7 (Homo sapiens, UniProt Q8TDX7); conditions: Compound concentration 1000.0 nM
[9] = molecular target: Cyclin-dependent kinase 15 (Homo sapiens) (UniProt Q96Q40); conditions: Compound concentration 1000.0 nM
Cyclin-dependent kinase 15 (Homo sapiens), sequence (Q96Q40 whole entry, canonical isoform): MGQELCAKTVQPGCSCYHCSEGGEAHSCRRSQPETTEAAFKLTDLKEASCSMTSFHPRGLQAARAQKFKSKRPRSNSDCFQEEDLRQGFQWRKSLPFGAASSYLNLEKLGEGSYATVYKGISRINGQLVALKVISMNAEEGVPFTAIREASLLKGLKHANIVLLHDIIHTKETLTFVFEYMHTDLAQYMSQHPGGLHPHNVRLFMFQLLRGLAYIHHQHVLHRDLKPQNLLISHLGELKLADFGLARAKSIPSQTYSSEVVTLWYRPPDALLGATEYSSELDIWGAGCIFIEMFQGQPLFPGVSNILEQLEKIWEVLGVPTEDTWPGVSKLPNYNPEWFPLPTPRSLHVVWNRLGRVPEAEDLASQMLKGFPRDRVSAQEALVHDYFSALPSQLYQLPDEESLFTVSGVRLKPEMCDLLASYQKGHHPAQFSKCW

[10] = molecular target: Phosphorylase b kinase gamma catalytic chain, skeletal muscle/heart isoform (Homo sapiens) (UniProt Q16816); conditions: Compound concentration 1000.0 nM
Phosphorylase b kinase gamma catalytic chain, skeletal muscle/heart isoform (Homo sapiens), sequence (Q16816 whole entry, looked up, canonical isoform): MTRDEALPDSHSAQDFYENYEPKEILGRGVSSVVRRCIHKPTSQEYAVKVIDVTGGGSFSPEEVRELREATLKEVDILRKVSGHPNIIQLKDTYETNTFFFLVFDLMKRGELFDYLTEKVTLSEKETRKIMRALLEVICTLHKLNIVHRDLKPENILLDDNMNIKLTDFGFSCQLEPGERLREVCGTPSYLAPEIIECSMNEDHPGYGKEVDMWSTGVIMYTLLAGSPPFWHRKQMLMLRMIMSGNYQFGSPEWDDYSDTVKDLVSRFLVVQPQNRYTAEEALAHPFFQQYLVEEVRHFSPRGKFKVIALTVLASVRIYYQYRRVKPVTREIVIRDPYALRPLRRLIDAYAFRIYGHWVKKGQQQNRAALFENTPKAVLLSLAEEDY

[11] = molecular target: 5-hydroxytryptamine receptor 5A (Homo sapiens) (UniProt P47898); conditions: Compound concentration 10.0 uM
5-hydroxytryptamine receptor 5A (Homo sapiens), sequence (P47898 whole entry): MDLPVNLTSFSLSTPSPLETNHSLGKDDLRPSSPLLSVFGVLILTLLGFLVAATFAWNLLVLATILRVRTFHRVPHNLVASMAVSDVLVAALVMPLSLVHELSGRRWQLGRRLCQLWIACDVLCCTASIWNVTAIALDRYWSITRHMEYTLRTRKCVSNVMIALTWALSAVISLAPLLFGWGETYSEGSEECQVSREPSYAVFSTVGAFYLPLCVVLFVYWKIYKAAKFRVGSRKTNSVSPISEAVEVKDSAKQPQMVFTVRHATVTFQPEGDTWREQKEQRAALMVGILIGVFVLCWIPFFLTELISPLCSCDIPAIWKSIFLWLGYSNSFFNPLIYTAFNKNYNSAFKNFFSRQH

[12] = molecular target: D(2) dopamine receptor (Homo sapiens) (UniProt P14416); conditions: Compound concentration 10.0 uM
[13] = molecular target: Muscarinic acetylcholine receptor M3 (Homo sapiens) (UniProt P20309); conditions: Compound concentration 10.0 uM
[14] = molecular target: T1, Serine/threonine-protein kinase Nek7; assay: Inhibition of NEK7 at compound concentration of 10.0 uM using the ScanMax (DiscoverX)
[15] = molecular target: Adenosine receptor A2a (Homo sapiens) (UniProt P29274); assay: A2a (h) Ligand binding assay; conditions: Compound concentration 10.0 uM
[16] = molecular target: Adenosine receptor A3 (Homo sapiens) (UniProt P0DMS8); assay: A3 (h) Ligand binding assay; conditions: Compound concentration 10.0 uM
[17] = molecular target: Beta-1 adrenergic receptor (Homo sapiens) (UniProt P08588); assay: beta1 (h) Ligand binding assay; conditions: Compound concentration 10.0 uM
Beta-1 adrenergic receptor (Homo sapiens), sequence (P08588 whole entry, looked up): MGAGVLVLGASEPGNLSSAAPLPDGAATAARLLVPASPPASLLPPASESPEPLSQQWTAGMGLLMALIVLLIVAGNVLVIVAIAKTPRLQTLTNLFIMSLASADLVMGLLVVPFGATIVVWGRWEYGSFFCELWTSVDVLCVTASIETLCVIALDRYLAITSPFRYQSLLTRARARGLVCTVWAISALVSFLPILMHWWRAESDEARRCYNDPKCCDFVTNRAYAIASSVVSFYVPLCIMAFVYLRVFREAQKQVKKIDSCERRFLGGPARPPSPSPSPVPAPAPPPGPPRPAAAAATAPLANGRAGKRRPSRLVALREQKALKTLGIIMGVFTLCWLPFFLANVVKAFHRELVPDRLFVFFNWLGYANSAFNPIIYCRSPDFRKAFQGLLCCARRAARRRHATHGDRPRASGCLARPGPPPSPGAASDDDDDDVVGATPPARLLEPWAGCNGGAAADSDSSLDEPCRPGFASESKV

[18] = molecular target: Gastrin/cholecystokinin type B receptor (Homo sapiens) (UniProt P32239); assay: CCKB (h) Ligand binding assay; conditions: Compound concentration 10.0 uM
[19] = molecular target: Endothelin-1 receptor (Homo sapiens) (UniProt P25101); assay: ETA (h) Ligand binding assay; conditions: Compound concentration 10.0 uM
[20] = molecular target: Histamine H2 receptor (Homo sapiens) (UniProt P25021); assay: H2 Ligand binding assay; conditions: Compound concentration 10.0 uM
[21] = molecular target: T2, Muscarinic acetylcholine receptor M5 (Homo sapiens) (UniProt P08912); assay: M5 (h) Ligand binding assay; conditions: Compound concentration 10.0 uM
T2 sequence (whole entry): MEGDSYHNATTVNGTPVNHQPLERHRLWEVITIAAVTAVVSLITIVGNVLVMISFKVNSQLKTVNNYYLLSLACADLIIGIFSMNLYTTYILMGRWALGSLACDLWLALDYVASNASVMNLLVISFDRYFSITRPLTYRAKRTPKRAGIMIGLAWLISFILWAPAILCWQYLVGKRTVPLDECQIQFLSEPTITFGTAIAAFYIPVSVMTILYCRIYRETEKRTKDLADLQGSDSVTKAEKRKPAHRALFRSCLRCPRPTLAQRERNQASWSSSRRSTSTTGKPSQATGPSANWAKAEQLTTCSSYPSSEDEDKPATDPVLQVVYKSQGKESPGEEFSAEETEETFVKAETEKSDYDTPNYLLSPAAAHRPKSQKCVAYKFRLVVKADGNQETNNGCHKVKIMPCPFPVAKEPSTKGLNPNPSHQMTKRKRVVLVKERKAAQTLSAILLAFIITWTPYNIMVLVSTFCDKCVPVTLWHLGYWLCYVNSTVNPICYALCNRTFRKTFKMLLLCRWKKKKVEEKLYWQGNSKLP

[22] = molecular target: Substance-K receptor (Homo sapiens) (UniProt P21452); assay: NK2 (h) Ligand binding assay
[23] = molecular target: Delta-type opioid receptor (Homo sapiens) (UniProt P41143); assay: Delta (h) Ligand binding assay; conditions: Compound concentration 10.0 uM
[24] = molecular target: Nociceptin receptor (Homo sapiens) (UniProt P41146); assay: ORL-1 (h) Ligand binding assay; conditions: Compound concentration 10.0 uM
[25] = molecular target: Pituitary adenylate cyclase-activating polypeptide type I receptor (Homo sapiens) (UniProt P41586); assay: PACAP[…] (h) Ligand binding assay; conditions: Compound concentration 10.0 uM
[26] = molecular target: Thromboxane A2 receptor (Homo sapiens) (UniProt P21731); assay: TXA2/PGH2 (h) Ligand binding assay; conditions: Compound concentration 10.0 uM
[27] = molecular target: T3, 5-hydroxytryptamine receptor 1A (Homo sapiens) (UniProt P08908); assay: 5-HT1A (h) Ligand binding assay; conditions: Compound concentration 10.0 uM
T3 sequence (whole entry): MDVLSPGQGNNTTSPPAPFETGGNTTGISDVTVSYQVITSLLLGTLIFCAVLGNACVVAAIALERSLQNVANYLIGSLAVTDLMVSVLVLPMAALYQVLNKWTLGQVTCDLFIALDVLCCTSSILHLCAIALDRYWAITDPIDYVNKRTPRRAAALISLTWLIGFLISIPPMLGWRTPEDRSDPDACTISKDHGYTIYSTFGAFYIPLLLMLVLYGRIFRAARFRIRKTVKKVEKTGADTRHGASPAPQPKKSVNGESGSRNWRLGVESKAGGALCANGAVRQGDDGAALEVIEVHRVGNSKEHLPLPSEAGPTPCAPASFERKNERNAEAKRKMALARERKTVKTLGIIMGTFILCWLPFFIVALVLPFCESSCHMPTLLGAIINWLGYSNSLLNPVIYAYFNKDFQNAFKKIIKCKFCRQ

[28] = molecular target: Somatostatin receptor (Homo sapiens) (UniProt P35346+P30874+P31391+P30872+P32745); assay: Somatostatin Ligand binding assay; assay type: protein assay; conditions: Compound concentration 10.0 uM
[29] = molecular target: Vasoactive intestinal polypeptide receptor 1 (Homo sapiens) (UniProt P32241); assay: VIP1 (h) Ligand binding assay
Vasoactive intestinal polypeptide receptor 1 (Homo sapiens), sequence (P32241 whole entry): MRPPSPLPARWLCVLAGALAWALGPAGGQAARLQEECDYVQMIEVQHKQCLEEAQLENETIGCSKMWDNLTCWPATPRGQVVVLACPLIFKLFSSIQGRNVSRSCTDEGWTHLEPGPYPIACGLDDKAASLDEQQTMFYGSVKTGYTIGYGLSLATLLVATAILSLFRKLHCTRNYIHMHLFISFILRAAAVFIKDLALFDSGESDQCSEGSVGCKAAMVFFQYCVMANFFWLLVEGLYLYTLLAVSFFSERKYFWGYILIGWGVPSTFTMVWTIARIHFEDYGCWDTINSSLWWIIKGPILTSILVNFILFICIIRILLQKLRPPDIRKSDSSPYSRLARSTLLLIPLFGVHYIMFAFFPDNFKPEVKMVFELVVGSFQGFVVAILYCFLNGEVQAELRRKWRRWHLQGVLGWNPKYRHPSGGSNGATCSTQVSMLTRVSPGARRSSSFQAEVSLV

[30] = molecular target: Beta-1 adrenergic receptor (Homo sapiens) (UniProt P08588); conditions: Compound concentration 10.0 uM
[31] = molecular target: Alpha-1D adrenergic receptor (Homo sapiens) (UniProt P25100); conditions: Compound concentration 10.0 uM
[32] = molecular target: Atrial natriuretic peptide receptor 1 (Homo sapiens) (UniProt P16066); assay: ANP Ligand binding assay; conditions: Compound concentration 10.0 uM
[33] = molecular target: Melatonin receptor type 1A (Homo sapiens) (UniProt P48039); assay: ML1 Ligand binding assay; conditions: Compound concentration 10.0 uM

Serine/threonine-protein kinase 17A (Homo sapiens), sequence (Q9UEE5 whole entry): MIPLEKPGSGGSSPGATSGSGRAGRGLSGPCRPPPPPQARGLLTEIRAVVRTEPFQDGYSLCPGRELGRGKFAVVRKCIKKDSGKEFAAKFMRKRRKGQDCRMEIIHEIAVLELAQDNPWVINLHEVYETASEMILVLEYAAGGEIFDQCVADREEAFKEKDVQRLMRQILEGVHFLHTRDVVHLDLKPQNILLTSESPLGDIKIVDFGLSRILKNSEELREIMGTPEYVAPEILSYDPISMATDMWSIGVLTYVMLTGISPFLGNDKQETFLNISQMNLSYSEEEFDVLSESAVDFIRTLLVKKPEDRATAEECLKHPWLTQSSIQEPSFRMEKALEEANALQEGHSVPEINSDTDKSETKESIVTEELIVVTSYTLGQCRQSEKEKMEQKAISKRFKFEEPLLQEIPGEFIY

SMILES: Cn1cncc1[C@@](O)(COc1ccc(C#N)cc1-c1ccc(OC(F)(F)F)cc1)c1ccc(C#N)cc1 [A-108]
- residual activity [1]: 100%
- residual activity [2]: 81%
- residual activity [3]: 100%
- residual activity [4]: 100%
- residual activity [5]: 91%
- residual activity [6]: 100%
- residual activity [7]: 96%
- residual activity [8]: 99%
- residual activity [9]: 100%
- residual activity [10]: 95%
- inhibition [11]: 0.81%
- inhibition [12]: 7.47%
- inhibition [13]: 2.79%

SMILES: Cn1cncc1[C@](O)(COc1ccc(C#N)cc1-c1ccc(OC(F)(F)F)cc1)c1ccc(C#N)cc1 [ABT-100]
- Kd [14]: > 10 µM (not active)
- inhibition [15]: < 10%
- inhibition [16]: < 10%
- inhibition [17]: 22%
- inhibition [18]: < 10%
- inhibition [19]: < 10%
- inhibition [20]: 53%
- inhibition [21]: 18%
- inhibition ([22]; Compound concentration 3.0 uM): 32%
- inhibition ([22]; Compound concentration 10.0 uM): 81%
- inhibition [23]: 14%
- inhibition [24]: < 10%
- inhibition [25]: < 10%
- inhibition [26]: 24%
- inhibition [27]: 18%
- inhibition [28]: 13%
- inhibition ([29]; Compound concentration 0.3 uM): 23%
- inhibition ([29]; Compound concentration 10.0 uM): 60%
- residual activity [1]: 100%
- residual activity [2]: 87%
- residual activity [3]: 100%
- residual activity [4]: 99%
- residual activity [5]: 71%
- residual activity [6]: 92%
- residual activity [7]: 100%
- residual activity [8]: 46%
- residual activity [9]: 59%
- residual activity [10]: 63%
- inhibition [11]: 1.81%
- inhibition [30]: 4.25%
- inhibition [13]: 23.3%
- inhibition [31]: -8.65%
- inhibition [32]: < 10%
- inhibition [33]: 50%
